± gives the standard deviation of the averaged measurements.
How the values were obtained:
[1] = tested on: HL-60; assay: cell viability (% survival relative to DMSO control); higher = less cytotoxic; details: 72 h
Outline: (§1)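 A rescreen of the full library used HL-60 cells in RPMI 1640 with 10% FBS on 384-well plates, run in duplicate at five tenfold concentrations (1–10,000 nM). Each screen included DMSO or 100 nM of one of three metabolic inhibitors and ran 72 h at 37 °C, 5% CO2. CellTiter-Glo viability was scaled between DMSO and 10 μM proteasome-inhibitor wells. Any area under the curve comes from four-parameter log-logistic fits with drc and PharmacoGx.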

[2] = tested on: HL-60; assay: area under dose-response curve (viability, 1 nM-10 uM) (fraction (0-1)); higher = more sensitive; details: 72 h
Outline: as §1

[3] = 0.001 µM, co-treatment: AZD3965 100 nM
[4] = 0.001 µM, co-treatment: DMSO vehicle
[5] = 0.001 µM, co-treatment: GSK2194069 100 nM
[6] = 0.001 µM, co-treatment: pictilisib 100 nM
[7] = 0.01 µM, co-treatment: AZD3965 100 nM
[8] = 0.01 µM, co-treatment: DMSO vehicle
[9] = 0.01 µM, co-treatment: GSK2194069 100 nM
[10] = 0.01 µM, co-treatment: pictilisib 100 nM
[11] = 0.1 µM, co-treatment: AZD3965 100 nM
[12] = 0.1 µM, co-treatment: DMSO vehicle
[13] = 0.1 µM, co-treatment: GSK2194069 100 nM
[14] = 0.1 µM, co-treatment: pictilisib 100 nM
[15] = 1 µM, co-treatment: AZD3965 100 nM
[16] = 1 µM, co-treatment: DMSO vehicle
[17] = 1 µM, co-treatment: GSK2194069 100 nM
[18] = 1 µM, co-treatment: pictilisib 100 nM
[19] = 10 µM, co-treatment: AZD3965 100 nM
[20] = 10 µM, co-treatment: DMSO vehicle
[21] = 10 µM, co-treatment: GSK2194069 100 nM
[22] = 10 µM, co-treatment: pictilisib 100 nM
[23] = co-treatment: GSK2194069 100 nM
[24] = co-treatment: pictilisib 100 nM

SMILES	cell viability [1, 3]	cell viability [1, 4]	cell viability [1, 5]	cell viability [1, 6]	cell viability [1, 7]	cell viability [1, 8]	cell viability [1, 9]	cell viability [1, 10]	cell viability [1, 11]	cell viability [1, 12]	cell viability [1, 13]	cell viability [1, 14]	cell viability [1, 15]	cell viability [1, 16]	cell viability [1, 17]	cell viability [1, 18]	cell viability [1, 19]	cell viability [1, 20]	cell viability [1, 21]	cell viability [1, 22]	area under dose-response curve ([2]; co-treatment: AZD3965 100 nM)	area under dose-response curve ([2]; co-treatment: DMSO vehicle)	area under dose-response curve [2, 23]	area under dose-response curve [2, 24]
CN(CCCOc1ccc(Cc2ccccc2)cc1)CCC(=O)O	98 ± 1.6%	106 ± 1.8%	102.15 ± 0.037%	98.7 ± 14%	101 ± 7.5%	100 ± 4.3%	102 ± 4.6%	110 ± 3.2%	112 ± 15%	104 ± 3.2%	105.1 ± 0.41%	114 ± 20%	99.6 ± 0.52%	100 ± 2.7%	103 ± 9.3%	97.8 ± 4.1%	99.54 ± 0.33%	98.6 ± 0.22%	101 ± 5.6%	93.3 ± 3.2%	< 0.0301	< 0.0301	< 0.0301	< 0.0301
COc1ccc2c(NC(=O)Nc3cccc(C(F)(F)F)n3)ccnc2c1	100 ± 3.6%	101.7 ± 0.71%	95.4 ± 4.6%	104 ± 10%	99.88 ± 0.16%	82.9 ± 21%	95.5 ± 3%	73.9 ± 48%	104.1 ± 0.52%	103 ± 2.9%	99.2 ± 1.9%	98.4 ± 18%	101.3 ± 0.29%	103 ± 5.3%	95.9 ± 8.1%	86.5 ± 24%	101 ± 8.5%	111 ± 1.3%	92.5 ± 9.2%	121 ± 12%	< 0.0301	< 0.0301	< 0.0301	< 0.0301
Cc1nc(-c2ccccc2)sc1C(=O)Nc1ccc(S(N)(=O)=O)cc1	101 ± 2.2%	103 ± 2.4%	99.3 ± 3.8%	101 ± 1.8%	109 ± 3.9%	109 ± 1.8%	104 ± 1.3%	97.6 ± 6.2%	96 ± 1.3%	100.3 ± 1%	85.9 ± 4.9%	92 ± 1.2%	94.8 ± 7.5%	97.5 ± 1.4%	91.2 ± 9.1%	97.9 ± 1.8%	99.97 ± 0.89%	98.6 ± 2.6%	96.25 ± 0.77%	99.5 ± 6%	< 0.0301	< 0.0301	< 0.0301	< 0.0301
C=CC(=O)c1ccc(O)cc1 [4-Acryloylphenol]	104 ± 2.3%	102 ± 3.4%	104 ± 3.1%	108 ± 2.5%	99.2 ± 1.7%	101.3 ± 0.4%	110 ± 15%	103 ± 8.7%	88.2 ± 19%	100 ± 5.9%	96.21 ± 0.15%	104 ± 3.7%	99.4 ± 1.9%	102 ± 5.9%	105 ± 9.7%	108 ± 23%	63.5 ± 5.5%	92.8 ± 3.6%	87.5 ± 4.1%	58.5 ± 22%	< 0.0301	< 0.0301	< 0.0301	< 0.0301
O=c1cc(-c2ccccc2)oc2c1ccc1ccccc12 [Alpha-Naphtoflavone]	103 ± 6.3%	102 ± 1.3%	98.2 ± 2.1%	96.8 ± 1%	99 ± 5.6%	99.7 ± 3.6%	101 ± 5.7%	101.3 ± 0.75%	102 ± 4%	97.6 ± 4.9%	110 ± 9.3%	99.3 ± 2%	100.7 ± 0.43%	98.3 ± 3.9%	99.9 ± 4.9%	93 ± 4.5%	101.2 ± 1%	101 ± 1.2%	98.3 ± 4.6%	90 ± 3.6%	< 0.0301	< 0.0301	< 0.0301	< 0.0301
Cc1c(Cl)cccc1S(=O)(=O)Nc1nc(CC(=O)N2CCN(C)CC2)cs1 [BVT-2733]	101.68 ± 0.086%	101 ± 3%	103.6 ± 0.74%	96.1 ± 7.3%	102 ± 3.8%	103.3 ± 0.6%	105 ± 6.3%	99.8 ± 8.6%	97.2 ± 1.6%	98.9 ± 2%	97 ± 2.4%	96.6 ± 2.2%	98.13 ± 0.69%	98.1 ± 1.3%	88.4 ± 7.7%	87.2 ± 13%	99.4 ± 1.7%	98.8 ± 1.6%	99.66 ± 0.36%	97.9 ± 1.1%	< 0.0301	< 0.0301	< 0.0301	< 0.0301
CCc1oc2ccccc2c1C(=O)c1cc(Br)c(O)c(Br)c1 [Benzbromarone]	98.7 ± 1.8%	101 ± 1.1%	95.9 ± 1.3%	93.8 ± 3.1%	99.3 ± 1.6%	99 ± 2.1%	104 ± 4.5%	99.8 ± 1%	98.9 ± 1.8%	101 ± 4%	105 ± 9.6%	97.7 ± 4.2%	102 ± 2.5%	103 ± 2.3%	102.3 ± 0.5%	118 ± 10%	99.81 ± 0.45%	101.1 ± 0.99%	97.85 ± 0.96%	98 ± 12%	< 0.0301	< 0.0301	< 0.0301	< 0.0301
CCOC(=O)c1sc(NC(=O)c2ccco2)c(SC#N)c1C [CBR-5884]	107.6 ± 1%	104 ± 1.5%	97.6 ± 3.5%	107 ± 3.1%	103 ± 1.6%	102 ± 2.5%	98.31 ± 0.17%	101 ± 3.1%	93.2 ± 23%	98.9 ± 5.8%	90.6 ± 12%	81.8 ± 26%	106 ± 3.2%	105 ± 2.1%	98.2 ± 3.5%	101 ± 11%	102 ± 6.6%	100.8 ± 0.41%	103 ± 3.9%	88 ± 4.2%	< 0.0301	< 0.0301	< 0.0301	< 0.0301
